Laboratory results taken from US6375927B1, “Methods of radiotherapy using biomodulators” (priority 1991, dated 2002).

Columns and labels:
[1] = tested on: xenografts of human teratocarcinoma tumors; assay: Imaging tumors with 99mTc-labeled TNF-α and biomodulators; format: in vivo, Balb/c mice; details: pretreatment 15 hours earlier
Method: Balb/c mice bearing xenografts of human teratocarcinoma tumors induced by subcutaneous injections of live tumor cells 8 days previously were injected with 10 μg of Ukrain, pokeweed mitogen or 10K units of interferon. 15 hours later, they were injected i.v. with 10 μCi of ^99mTc-labeled TNF-α labeled using the ascorbic acid reduction method of M. L. Thakur. M. L. Thakur et al., “Tc-99m Labeled Monoclonal Antibodies: Evaluation of Reducing Agents,” Internat. J. Nucl. Med. Biol. 18, 227-233 (1991). M. L. Thakur et al., “Tc-99m Labeled Monoclonal Antibodies for Immunoscintigraphy: Simplified Preparation and Evaluation,” J. Immunol. Methods 137, 217-225 (1991). Mice were imaged at 1.5, 4 and 24 hours post injection of the ^99m-labeled TNF-α and sacrificed for tissue distribution studies.

B-16 melanoma cells [2] = assay: Effect of a biomodulator on the biodistribution of a non-specific agent (I-125 BSA); format: in vivo, mice; details: 2 hours (FIG. 9) and 4 hours (FIG. 10)
Excerpt: The results of biodistribution studies of mice injected with 6×10^5 B-16 melanoma cells 7 days prior to the injection of Tc-99m labeled pokeweed (Tc-99m PWM) and I-125 bovine serum albumin (I-125 BSA) or Tc-99m labeled human serum albumin (Tc-99m HSA) and I-125 bovine serum albumin (I-125 BSA) .

canine glioma tumors = assay: NMR imaging of tumor using pokeweed mitogen; effect on T1; format: in vivo, nude rats
Method: Three nude rats were implanted with canine glioma tumors in their left flank. […] NMR imaging was performed as above at 4 hours post injection.

B-16 melanoma cells [3] = assay: Tissue localization of otherwise non-specific imaging agent (Tc-99m HSA) after pokeweed mitogen; format: in vivo, mouse; details: 10 μg pokeweed mitogen four hours before 99mTc-HSA
Method: A mouse ([…]) was injected with B-16 melanoma cells in accordance with Example 1. 7 days later, 10 μg of pokeweed mitogen was injected into the mouse. Four hours later ^99mTc-human serum albumin (HSA) was injected. The resultant posterior gamma camera image is obtained of the tumor grown in the mouse. Comparison with the control image.

[4] = 4 and 24 hours post injection of TNF-α
[5] = 1.5 hours post injection of TNF-α
[6] = treatment with unlabeled PWM, FIG. 6

Substance | tumor to muscle ratios of radioisotope uptake (99mTc-labeled TNF-α) compared to mice not receiving biomodulators or interferon [1, 4] | tumor to muscle ratios of radioisotope uptake (99mTc-labeled TNF-α) compared to mice not receiving biomodulators or interferon [1, 5] | distribution of I-125 BSA depending on co-injected agent (Tc-99m PWM or Tc-99m HSA) (B-16 melanoma cells [2]) | Visualization of the tumors (NMR imaging) (canine glioma tumors; 4 hours post injection, 7 days post-implantation) | effect on T1 of the treated tissue image (canine glioma tumors; NMR image, 4 hours post injection) | T1 measured on the tumor (canine glioma tumors; [6]) | T1 of normal muscle tissue (canine glioma tumors; [6]) | gamma camera image of tumor with 99mTc-HSA versus control image without pokeweed mitogen (B-16 melanoma cells [3])
interferon | not at 4 and 24 hours | enhanced |  |  |  |  |  | 
I-125 BSA: I-125 bovine serum albumin, non-specific agent |  |  | significant differences |  |  |  |  | 
pokeweed mitogen | not at 4 and 24 hours | enhanced |  | observed as bright areas | lowers T1 | enhanced tenfold | remained at baseline levels | significant image enhancement
